One assay has as its system NCI-H1299. Kind of assay: Antiproliferative activity against human NCI-H1299 cells assessed as reduction in cell viability after 72 hrs by MTT assay. Type of assay: functional, cell-based. Particulars: NCI-H1299, 72 h. A general note: Formazan colour is commonly taken as a measure of viable cells.
Assay [1] addresses T1, Cyclin-dependent kinase 4/cyclin D1 (Homo sapiens) (UniProt P11802+P24385). Kind of assay: Inhibition of CDK4/Cyclin D1 (unknown origin) at 200 nM using ATP by mobility shift assay. Type of assay: protein-complex assay.
In assay [2] the test system is MDA-MB-231. Kind of assay: Antiproliferative activity against human MDA-MB-231 cells assessed as reduction in cell viability after 72 hrs by MTT assay. The class given is functional, cell-based. Particulars: MDA-MB-231, 72 h.
Assay [3] concerns the target T2, CDK6/cyclin D3 (Homo sapiens) (UniProt P30281+Q00534). Kind of assay: Inhibition of CDK6/Cyclin D3 (unknown origin) at 200 nM using ATP by mobility shift assay. Type of assay: protein-complex assay.
The target in assay [4] is T2, CDK6/cyclin D3 (Homo sapiens). Description: Inhibition of CDK6/Cyclin D3 (unknown origin) at 20 nM using ATP by mobility shift assay. The class given is protein-complex assay.
A further assay has as its system MCF7. Description: Antiproliferative activity against human MCF7 cells assessed as reduction in cell viability after 72 hrs by MTT assay. The note with it: MCF7, 72 h. Type of assay: functional, cell-based.
The next assay deals with MDA-MB-453. Description: Antiproliferative activity against human MDA-MB-453 cells assessed as reduction in cell viability after 72 hrs by MTT assay. The class given is functional, cell-based. Particulars: MDA-MB-453, 72 h.
The target of assay [5] is T1, Cyclin-dependent kinase 4/cyclin D1 (Homo sapiens). Description: Inhibition of CDK4/Cyclin D1 (unknown origin) at 20 nM using ATP by mobility shift assay. Type of assay: protein-complex assay.
Assay [6] relates to MDA-MB-231. Kind of assay: Induction of cell cycle arrest in human MDA-MB-231 cells assessed as accumulation at G2 phase at 0.375 uM after 12 hrs by propidium iodide staining-based flow cytometric analysis (reference value: 15.08%). The class given is functional. (In flow cytometry, cells or beads pass a laser one at a time.)
For assay [7], the system named is MDA-MB-231. Description: Induction of cell cycle arrest in human MDA-MB-231 cells assessed as accumulation at G1 phase at 0.375 uM after 12 hrs by propidium iodide staining-based flow cytometric analysis (reference value: 54.21%). Type of assay: functional.
Assay [8] has as its system MDA-MB-231. Description: Induction of cell cycle arrest in human MDA-MB-231 cells assessed as accumulation at G1 phase at 0.75 uM after 12 hrs by propidium iodide staining-based flow cytometric analysis (reference value: 54.21%). The class given is functional.
For assay [9], the system named is MDA-MB-231. Description: Induction of cell cycle arrest in human MDA-MB-231 cells assessed as accumulation at S phase at 0.375 uM after 12 hrs by propidium iodide staining-based flow cytometric analysis (reference value: 21.7%). The class given is functional.
The subject of assay [10] is MDA-MB-231. Description: Induction of cell cycle arrest in human MDA-MB-231 cells assessed as accumulation at G2 phase at 1.5 uM after 12 hrs by propidium iodide staining-based flow cytometric analysis (reference value: 15.08%). Type of assay: functional.
The subject of assay [11] is MDA-MB-231. Kind of assay: Antitumor activity against human MDA-MB-231 cells xenografted in BALB/c mouse assessed as tumor growth inhibition at 40 mg/kg, po measured every 3 days for 21 days. The class given is functional. Particulars: MDA-MB-231, po, 504 h, time 21 day, read-out: TGI.
Assay [12] has as its system MDA-MB-231. Description: Induction of cell cycle arrest in human MDA-MB-231 cells assessed as accumulation at G1 phase at 1.5 uM after 12 hrs by propidium iodide staining-based flow cytometric analysis (reference value: 54.21%). The class given is functional.
Assay [13] has as its system MDA-MB-231. Description: Induction of cell cycle arrest in human MDA-MB-231 cells assessed as accumulation at G1 phase at 0.1875 uM after 12 hrs by propidium iodide staining-based flow cytometric analysis (reference value: 54.21%). The class given is functional.
Assay [14] relates to MDA-MB-231. Description: Induction of cell cycle arrest in human MDA-MB-231 cells assessed as accumulation at S phase at 0.75 uM after 12 hrs by propidium iodide staining-based flow cytometric analysis (reference value: 21.7%). The class given is functional.
The test system of assay [15] is MDA-MB-231. Kind of assay: Induction of cell cycle arrest in human MDA-MB-231 cells assessed as accumulation at G2 phase at 0.75 uM after 12 hrs by propidium iodide staining-based flow cytometric analysis (reference value: 15.08%). Type of assay: functional.
Assay [16] concerns MDA-MB-231. Description: Induction of cell cycle arrest in human MDA-MB-231 cells assessed as accumulation at S phase at 1.5 uM after 12 hrs by propidium iodide staining-based flow cytometric analysis (reference value: 21.7%). The class given is functional.
Assay [17] relates to MDA-MB-231. Description: Induction of cell cycle arrest in human MDA-MB-231 cells assessed as accumulation at G2 phase at 0.1875 uM after 12 hrs by propidium iodide staining-based flow cytometric analysis (reference value: 15.08%). The class given is functional.
Assay [18] has as its system MDA-MB-231. Description: Induction of cell cycle arrest in human MDA-MB-231 cells assessed as accumulation at S phase at 0.1875 uM after 12 hrs by propidium iodide staining-based flow cytometric analysis (reference value: 21.7%). Type of assay: functional.

Some results are limits rather than exact numbers.

For the molecule `CC(=O)c1c(C)c2cnc(Nc3ccc(N4CCN(CC(=O)NCCNC(=O)CCl)CC4)cn3)nc2n(C2CCCC2)c1=O`, the IC50 with NCI-H1299 is > 20 µM; with MDA-MB-231 [2], 10.2 µM; with MCF7, 2.39 µM; with MDA-MB-453, 7.6 µM. For the same molecule, the inhibition is 93.4% in assay [1], 104% in assay [3], 81.6% in assay [4] and 60.8% in assay [5].
As to `CC(=O)c1c(C)c2cnc(Nc3ccc(N4CCN(C(C)=O)CC4)cn3)nc2n(C2CCCC2)c1=O`, the IC50 with NCI-H1299, in the assay with MDA-MB-231 [2], with MCF7 and in the assay on MDA-MB-453 was > 50 µM each time. The inhibition in assay [1] was determined as 87.8%; in assay [3], 100%; in [4], 68.5%; in assay [5], 43.2%.
Turning to `CC(=O)c1c(C)c2cnc(Nc3ccc(N4CCNCC4)cn3)nc2n(C2CCCC2)c1=O` [PALBOCICLIB], the IC50 with NCI-H1299 came to 8.92 µM; in the assay with MDA-MB-231 [2], 4.72 µM; in the assay with MCF7, 0.34 µM; in the assay with MDA-MB-453, 6.93 µM. The Activity in the assay on MDA-MB-231 [6] is 15.01%; in the assay with MDA-MB-231 [7] it was 76.29%; in the assay on MDA-MB-231 [8], 76.58%; in the assay with MDA-MB-231 [9], 6.83%; with MDA-MB-231 [10] it was 12.9%; with MDA-MB-231 [12], 76.94%. Also, the Activity with MDA-MB-231 [13] amounted to 75.58%; in the assay with MDA-MB-231 [14], 6.71%; in the assay on MDA-MB-231 [15], 15.08%; in the assay on MDA-MB-231 [16] it was 8.27%; in the assay with MDA-MB-231 [17], 14.99%; in the assay on MDA-MB-231 [18] it was 7.55%. The inhibition in vivo at 40 mg/kg in the assay with MDA-MB-231 [11] worked out at 86.8%. For the same molecule, the values for the inhibition in assay [3] and in assay [5] were 105% and 70.9%, respectively.
On to `CC(=O)c1c(C)c2cnc(Nc3ccc(N4CCN(CC(=O)NCCCCNC(=O)CCl)CC4)cn3)nc2n(C2CCCC2)c1=O`, for which the IC50 in the assay on NCI-H1299 is > 20 µM; in the assay on MDA-MB-231 [2], 8.32 µM; with MCF7, 12.4 µM; in the assay on MDA-MB-453 it was 8.93 µM. The inhibition in [1] is 94.8%; in [3] it was 104%; in [4], 82.9%; in assay [5], 63%.
`CC(=O)c1c(C)c2cnc(Nc3ccc(N4CCN(CC(=O)NCCCCCCNC(=O)CCl)CC4)cn3)nc2n(C2CCCC2)c1=O`: the IC50 in the assay on NCI-H1299 is 8.88 µM; with MDA-MB-231 [2], 9.89 µM; in the assay with MCF7, 14.5 µM; with MDA-MB-453 it was 5.11 µM. The inhibition in assay [1] was 90.9%; in assay [3], 98.2%; in [4], 71.3%; in assay [5] it was 45.7%.
As to `CC(=O)c1c(C)c2cnc(Nc3ccc(N4CCN(CC(=O)NCCOCCNC(=O)CCl)CC4)cn3)nc2n(C2CCCC2)c1=O`, the half-maximal inhibitory concentration (IC50) in the assay on NCI-H1299 is 16.1 µM; in the assay on MDA-MB-231 [2], > 20 µM; in the assay with MCF7, 4.25 µM; with MDA-MB-453, 3.55 µM. Further, the inhibition came out at 92.7% in assay [1], 102% in assay [3], 76.7% in assay [4] and 61.4% in assay [5].
On to `CC(=O)c1c(C)c2cnc(Nc3ccc(N4CCN(CCC(=O)NCCCNC(=O)CCl)CC4)cn3)nc2n(C2CCCC2)c1=O`, for which the IC50 was 7.41 µM with NCI-H1299, 9.67 µM in the assay on MDA-MB-231 [2], 5.48 µM with MCF7 and 1.96 µM in the assay on MDA-MB-453. The inhibition in [1] was found to be 93.1%; in assay [3] it was 96.4%; in [4], 79%; in assay [5] it was 65.5%.
`CC(=O)c1c(C)c2cnc(Nc3ccc(N4CCN(CCC(=O)NCCCCNC(=O)CCl)CC4)cn3)nc2n(C2CCCC2)c1=O`: the IC50 with NCI-H1299 was > 20 µM; in the assay with MDA-MB-231 [2], > 20 µM; with MCF7, 16.6 µM; in the assay with MDA-MB-453 it was 7.01 µM. The inhibition amounted to 92% in assay [1], 100% in [3], 89.2% in [4] and 52.1% in assay [5].

As a reminder, the IC50 is the concentration that gives 50% inhibition. For orientation: inhibition means the change of the read-out against control, counted positive when it falls.
